According to patent publication US20230159510A1, “NOVEL PRMT5 INHIBITORS” (AMGEN INC., priority 2020, published 2023):
Where two headings read alike, the source gives them in different places.

How the values were obtained:
HCT116 WT cells = assay: HCT116 proliferation assay, WT cells (CellTiter-Glo, 6 days); assay type: cell-based; conditions: Homo sapiens, HCT-116, 144 h, read-out: Prolif_HCT116-WT IC50
In short: (§1)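 Cells were plated in RPMI 1640 with 10% fetal bovine serum and left overnight at 37° C and 5% CO2. Compound was then added as an 8- or 9-point 1:3 dilution series from a top concentration of 1 or 10 µM, alongside a DMSO-only control. Viability was read by luminescence.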

PRMT5/MEP50 = PRMT5/MEP50 (Homo sapiens, UniProt O14744); assay: MTase-Glo methyl transferase assay, Method B (FL-Histone H2A, 1 µM MTA, 1 h pre-incubation); assay type: biochemical; set-up: purchased Reaction Biology Corp RD-11-292; conditions: read-out: PRMT5 MTase Glo Ki (nM, Meth. B)
In short: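 PRMT5/MEP50 (4 nM) was pre-incubated 1 h with compound, 5 µM SAM and 1 µM MTA, then started with 2.5 µM FL-Histone H2A in Tris pH 8.0 buffer. After 20 h at room temperature, SAH was detected by MTase-Glo luminescence, and IC50/KI were fitted from dose-response curves.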

HCT116 MTAP null cells = assay: HCT116 proliferation assay, MTAP null cells (CellTiter-Glo, 6 days); assay type: cell-based; conditions: 144 h, read-out: Protif_ HCT116-MTAP null IC50
In short: as §1

Sequence of PRMT5/MEP50 (O14744 2-637 limits assumed): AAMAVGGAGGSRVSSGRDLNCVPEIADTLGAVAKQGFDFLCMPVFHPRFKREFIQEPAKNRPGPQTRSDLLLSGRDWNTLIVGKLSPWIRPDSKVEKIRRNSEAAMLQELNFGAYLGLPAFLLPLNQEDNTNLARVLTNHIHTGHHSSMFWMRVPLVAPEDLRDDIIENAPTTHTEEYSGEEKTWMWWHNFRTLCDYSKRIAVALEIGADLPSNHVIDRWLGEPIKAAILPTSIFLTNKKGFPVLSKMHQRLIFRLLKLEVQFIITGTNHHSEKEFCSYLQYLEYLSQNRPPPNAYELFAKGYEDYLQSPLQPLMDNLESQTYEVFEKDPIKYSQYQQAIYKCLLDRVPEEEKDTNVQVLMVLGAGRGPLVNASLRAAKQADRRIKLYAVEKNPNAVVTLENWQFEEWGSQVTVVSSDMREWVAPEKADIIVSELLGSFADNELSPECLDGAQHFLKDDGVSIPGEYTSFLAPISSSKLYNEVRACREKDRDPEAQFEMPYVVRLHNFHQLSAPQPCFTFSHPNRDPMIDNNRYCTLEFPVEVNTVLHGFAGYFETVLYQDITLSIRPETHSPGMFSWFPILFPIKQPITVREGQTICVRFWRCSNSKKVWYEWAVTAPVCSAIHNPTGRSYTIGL
Sequence of PRMT5/MEP50 (Q9BQA1 2-342 partner limits assumed): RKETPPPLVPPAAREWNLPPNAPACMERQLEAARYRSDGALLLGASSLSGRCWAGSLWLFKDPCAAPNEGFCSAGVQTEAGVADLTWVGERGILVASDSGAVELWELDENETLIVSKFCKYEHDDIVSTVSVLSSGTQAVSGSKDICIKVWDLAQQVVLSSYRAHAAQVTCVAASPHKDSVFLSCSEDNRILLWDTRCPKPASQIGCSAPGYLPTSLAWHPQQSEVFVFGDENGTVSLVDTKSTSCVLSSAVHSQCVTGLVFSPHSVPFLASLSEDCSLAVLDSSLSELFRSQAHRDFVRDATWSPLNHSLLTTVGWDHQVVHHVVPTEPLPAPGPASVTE

IC50 (HCT116 WT cells) [nM]	Ki (PRMT5/MEP50) [nM]	IC50 (HCT116 MTAP null cells; HCT116-MTAP null) [nM]	Compound	IC50 (HCT116 MTAP null cells) [nM]
5550	2 to 3	130	Cc1cc2cc(C(=O)N(Cc3ccc(N)nc3)Cc3ccc(C(F)(F)F)cn3)ccc2nc1N [Example 568, 2-amino-N-[(6-amino-3-pyridyl)methyl]-3-methyl-N-[[5-(trifluoromethyl)-2-pyridyl]methyl] quinoline-6-carboxamide]	
> 10000	2.39	343	Cc1cc2cc(C(=O)N(Cc3ccc4[nH]c(=O)[nH]c4c3)Cc3ccc(C(F)(F)F)cn3)ccc2nc1N [Example 570, 2-amino-3-methyl-N-((2-oxo-2,3-dihydro-1H-benzo[d]imidazol-5-yl)methyl)-N-((5-(trifluoromethyl)pyridin-2-yl)methyl)quinoline-6-carboxamide]	
> 1000	2.89	78	Cc1cc2cc(C(=O)N(Cc3ccc(C(F)(F)F)cn3)CC(C)C3CC3)ccc2nc1N (stereo not drawn) [Example 575, 2-amino-N-(2-cyclopropylpropyl)-3-methyl-N-((5-(trifluoromethyl)pyridin-2-yl)methyl)quinoline-6-carboxamide]	
> 10000	5.89	749	Cc1cc2cc(C(=O)N(CCc3ncon3)Cc3ccc(C(F)(F)F)cn3)ccc2nc1N [Example 576, N-(2-(1,2,4-oxadiazol-3-yl)ethyl)-2-amino-3-methyl-N-((5-(trifluoromethyl)pyridin-2-yl)methyl)quinoline-6-carboxamide]	
6650	3.89	159	Cc1cc2cc(C(=O)N(Cc3ccc(C(F)(F)F)cn3)CC3(C#N)CC3)ccc2nc1N [Example 577, 2-amino-N-((1-cyanocyclopropyl)methyl)-3-methyl-N-((5-(trifluoromethyl)pyridin-2-yl)methyl)quinoline-6-carboxamide]	
5600	2.24	110	Cc1cc2cc(C(=O)N(Cc3ccc(C(F)(F)F)cn3)Cc3cocn3)ccc2nc1N [Example 580, 2-amino-3-methyl-N-(oxazol-4-ylmethyl)-N-[[5-(trifluoromethyl)-2-pyridyl]methyl] quinoline-6-carboxamide]	
> 10000	17.1	352	Cc1cc2cc(C(=O)N(Cc3ccc(C(F)(F)F)cn3)CC3CCOCC3C)ccc2nc1N (stereo not drawn) [Example 596, 2-amino-3-methyl-N-((3-methyltetrahydro-2H-pyran-4-yl)methyl)-N-((5-(trifluoromethyl)pyridin-2-yl)methyl)quinoline-6-carboxamide]	
> 1000	6.35	300	Cc1cc2cc(C(=O)N(Cc3cncc(F)c3)Cc3ccc(C(F)(F)F)cn3)ccc2nc1N [Example 597, 2-amino-N-((5-fluoropyridin-3-yl)methyl)-3-methyl-N-((5-(trifluoromethyl)pyridin-2-yl)methyl)quinoline-6-carboxamide]	
> 1000	2.44	180	Cc1cc2cc(C(=O)N(Cc3cnc4[nH]ccc4c3)Cc3ccc(C(F)(F)F)cn3)ccc2nc1N [Example 598, 2-amino-3-methyl-N-(1H-pyrrolo [2,3-b]pyridin-5-ylmethyl)-N-[[5-(trifluoromethyl)-2-pyridyl]methyl]quinoline-6-carboxamide]	
> 1000	3.12	280	Cc1cc2cc(C(=O)N(Cc3ccc(C(F)(F)F)cn3)Cc3cc4c([nH]c3=O)CCC4)ccc2nc1N [Example 599, 2-amino-3-methyl-N-[(2-oxo-1,5,6,7-tetrahydrocyclopenta[b]pyridin-3-yl)methyl]-N-[[5-(trifluoromethyl)-2-pyridyl]methyl] quinoline-6-carboxamide]	
> 1000	1.83	44	Cc1cc2cc(C(=O)N(Cc3cccc(O)c3)Cc3ccc(C(F)(F)F)cn3)ccc2nc1N [Example 600, 2-amino-N-[(3-hydroxyphenyl)methyl]-3-methyl-N-[[5-(trifluoromethyl)-2-pyridyl]methyl] quinoline-6-carboxamide]	
820	1.78	38	Cc1cc2cc(C(=O)N(Cc3ccc(C(F)(F)F)cn3)[C@@H]3CCc4ccccc43)ccc2nc1N [Example 601, 2-amino-N-[(1R)-indan-1-yl]-3-methyl-N-[[5-(trifluoromethyl)-2-pyridyl]methyl] quinoline-6-carboxamide]	
> 1500	23.7	317	Cc1cc2cc(C(=O)N(Cc3ccc(C(F)(F)F)cn3)C3CCCc4[nH]ccc43)ccc2nc1N (stereo not drawn) [Example 603, 2-amino-3-methyl-N-(4,5,6,7-tetrahydro-1H-indol-4-yl)-N-((5-(trifluoromethyl)pyridin-2-yl)methyl)quinoline-6-carboxamide]	
280	2.9	27	Cc1cc2cc(C(=O)N(Cc3ccc(C(F)(F)F)cn3)C3CCCc4occc43)ccc2nc1N (stereo not drawn) [Example 606, 2-amino-3-methyl-N-(4,5,6,7-tetrahydrobenzofuran-4-yl)-N-((5-(trifluoromethyl)pyridin-2-yl)methyl)quinoline-6-carboxamide]	

Continued, molecule first:

Compound	IC50 (HCT116 WT cells) [nM]	Ki (PRMT5/MEP50) [nM]	IC50 (HCT116 MTAP null cells; HCT116-MTAP null) [nM]	IC50 (HCT116 MTAP null cells) [nM]
Cc1cc2cc(C(=O)N(Cc3ccc(N4CCC(C(N)=O)CC4)cc3)Cc3scnc3C)ccc2nc1N [Example 572, 2-amino-N-(4-(4-carbamoylpiperidin-1-yl)benzyl)-3-methyl-N-((4-methylthiazol-5-yl)methyl)quinoline-6-carboxamide]	> 10000	3.48	608	
Cc1cc2cc(C(=O)N(Cc3ccc(C(F)(F)F)cn3)Cc3c(C)c4ccccc4n3C)ccc2nc1N [Example 578, 2-amino-N-((1,3-dimethyl-1H-indol-2-yl)methyl)-3-methyl-N-((5-(trifluoromethyl)pyridin-2-yl)methyl)quinoline-6-carboxamide]	5090	15.4	859	
Cc1cc2c(nc1N)CCC(C(=O)N(Cc1ccc(C(F)(F)F)cn1)Cc1ccnc3[nH]ccc13)C2 (stereo not drawn) [Example 581, N-((1H-pyrrolo[2,3-b]pyridin-4-yl)methyl)-2-amino-3-methyl-N-((5-(trifluoromethyl)pyridin-2-yl)methyl)-5,6,7,8-tetrahydroquinoline-6-carboxamide]	> 1000	16	840	
Cc1cc2cc(C(=O)N(Cc3cncc(F)c3)Cc3ccccc3F)ccc2nc1N [Example 590, 2-amino-N-(2-fluorobenzyl)-N-((5-fluoropyridin-3-yl)methyl)-3-methylquinoline-6-carboxamide]	6800	14.9	921	
Cc1cc2cc(C(=O)N(Cc3ccc(C(F)(F)F)cn3)CC(C)C(F)(F)F)ccc2nc1N (stereo not drawn) [Example 591, 2-amino-3-methyl-N-(3,3,3-trifluoro-2-methylpropyl)-N-((5-(trifluoromethyl)pyridin-2-yl)methyl)quinoline-6-carboxamide]	> 1000	16.5		456
Cc1cc2cc(C(=O)N(Cc3ccc(C(F)(F)F)cn3)C3COCc4ccccc43)ccc2nc1N (stereo not drawn) [Example 593, 2-amino-N-(isochroman-4-yl)-3-methyl-N-((5-(trifluoromethyl)pyridin-2-yl)methyl)quinoline-6-carboxamide]	> 1000	13.2	185	
Cc1cc2cc(C(=O)N(Cc3ccc(C(F)(F)F)cn3)C3CC(C)(C)c4ccccc43)ccc2nc1N (stereo not drawn) [Example 594, 2-amino-N-(3,3-dimethyl-2,3-dihydro-1H-inden-1-yl)-3-methyl-N-((5-(trifluoromethyl)pyridin-2-yl)methyl)quinoline-6-carboxamide]	> 1000	26	640	
Cc1cc2cc(C(=O)N(Cc3ccc(C(F)(F)F)cn3)C3CC(C)c4ccccc43)ccc2nc1N (stereo not drawn) [Example 595, 2-amino-3-methyl-N-(3-methyl-2,3-dihydro-1H-inden-1-yl)-N-((5-(trifluoromethyl)pyridin-2-yl)methyl)quinoline-6-carboxamide]	8200	21.5	990	
Cc1cc2cc(C(=O)N(Cc3ccc(C(F)(F)F)cn3)C3CCC(C)c4ccccc43)ccc2nc1N (stereo not drawn) [Example 602, 2-amino-3-methyl-N-(4-methyl-1,2,3,4-tetrahydronaphthalen-1-yl)-N-((5-(trifluoromethyl)pyridin-2-yl)methyl)quinoline-6-carboxamide]	> 1000	7.26	85	
Cc1nc2c(s1)C(N(Cc1ccc(C(F)(F)F)cn1)C(=O)c1ccc3nc(N)c(C)cc3c1)CCC2 (stereo not drawn) [Example 604, 2-amino-3-methyl-N-(2-methyl-4,5,6,7-tetrahydrobenzo[d]thiazol-7-yl)-N-((5-(trifluoromethyl)pyridin-2-yl)methyl)quinoline-6-carboxamide]	400	5.46	44	
Cc1cc2cc(C(=O)N(Cc3ccc(C(F)(F)F)cn3)C3CCCc4nn(C)cc43)ccc2nc1N (stereo not drawn) [Example 605, 2-amino-3-methyl-N-(2-methyl-4,5,6,7-tetrahydro-2H-indazol-4-yl)-N-((5-(trifluoromethyl)pyridin-2-yl)methyl)quinoline-6-carboxamide]	> 1300	6.2	145	
